Source: US10988465B2, “CXCR4 inhibitors and uses thereof” (X4 Pharmaceuticals, Inc., priority 2016, dated 2021)
Read-outs that look alike come from different tables or passages of the source.

Tests used:
[1] = molecular target: T1, CXCR-4 transfected U87 cell line (U87.CXCR4) (Homo sapiens, UniProt P61073); test: Intracellular CXCL-12-induced calcium mobilization assay (FLIPR); type: cell-based; settings: U87.CXCR4 cells; CXCL-12 25-50 ng/mL; compound added 15 min before; read-out: IC50 CXCL-12 Ca^2+ flux U87.CXCR4+
T1 construct: expressed in transfected cells; host or cells: U87 (U87.CXCR4)
In short: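 CXCL-12 (25-50 ng/mL) was the stimulus, and the intracellular calcium rise was tracked kinetically by FLIPR at 37 °C. Cells were U87.CXCR4 transfectants pre-loaded 45 min at 37 °C with 4 μM (final) Fluo-2 AM in HEPES-buffered HBSS with 0.2% BSA, pH 7.4.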

in vitro = settings: human, Caco-2, pH 7.4
In short: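 Bidirectional permeability across Caco-2 monolayers in HBSS (pH 7.4) at a test concentration of 10 μM, incubated 0 and 90 min at 37° C (n=2). Monolayer integrity was assessed by TEER and Lucifer yellow. Papp was derived from LC-MS/MS-measured concentrations.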

[2] = molecular target: T2, Jurkat cells expressing CXCR4 (Homo sapiens, UniProt P61073); test: Chemokine (CXCL12-AF647) binding inhibition assay; settings: CXCL12-AF647 25 ng/mL, read-out: IC50 CXCL-12 binding Jurkat
T2 construct: endogenous in cells; host or cells: Jurkat
In short: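 Cells in HBSS, 20 mM HEPES, 0.2% BSA, pH 7.4, preincubated 15 min at room temperature with compound, then 25 ng/mL CXCL12-AF647 for 30 min. After washing and paraformaldehyde fixation, bound ligand read by flow cytometry; percent inhibition calculated from MFI relative to unlabeled and ligand-only controls.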

[3] = Mouse brain uptake assay (MBUA), 3 mg/kg IV, 0-1 h, 3 time points; type: in vivo, male CD1 mice; settings: for Kp / clearance / half-life / AUC(0-t) / Kp uu: male; for Kp: CD1, mouse, brain/plasma, iv, 3 mg/kg; for clearance / half-life: CD1, plasma, 3 time points; for clearance / half-life / AUC(0-t) / Kp uu / fraction unbound: mouse; for clearance / half-life / AUC(0-t) / Kp uu: 3 mg/kg IV, 0-1 h; for half-life: read-out: t½ (converted); for AUC(0-t) / Kp uu: CD1; for Kp uu: unbound brain/unbound plasma, read-out: Kp, uu
Description: Example 38: Pharmacokinetics and Brain Penetration Experiment to Determine Brain and Plasma Concentrations of Compounds after IV Administration to Male CD1 Mice
The study design (9 animals) consisted of administrating the drug (IV: 3 mg/kg (5 mL/kg) via tail vein injection) and collecting samples at terminal bleeding for plasma and brain at 0.083, 0.5 and 1 h. The IV dosing solution was prepared in 50 mM citrate buffer (pH 4.0) at 0.6 mg/mL. The blood collection was performed as follows: the animal was restrained manually and approximately 150 μL blood/time point was collected into a dipotassium EDTA tube via retro orbital puncture under anesthesia with isoflurane. The blood sample was put on ice and centrifuged to obtain a plasma sample (2000 g, 5 min under 4° C.) within 15 minutes. The brain collection was performed as follows: a mid-line incision was made in the animal's scalp and the skin was retracted. Using small bone cutters and rongeurs, the skull overlying the brain was removed. The brain was removed using a spatula and the brain rinsed with cold saline. The brain was placed in screw-top tubes, and the tubes were stored at −70° C. until analysis.
An aliquot of 30 μL sample was added to 150 μL MeCN containing 50 ng/mL IS (Dexamethasone). The mixture was vortexed for 5 min and centrifuged at 14,000 rpm for 5 min. An aliquot of 5 μL supernatant was injected for LC-MS/MS analysis.
An aliquot of 30 μL brain homogenate (brain:PBS=1:3, w/v) sample was added to 150 μL IS in MeCN (Dexamethasone, 50 ng/mL). The mixture was vortexed for 5 min and centrifuged at 14,000 rpm for 5 min. An aliquot of 5 μL supernatant was injected for LC-MS/MS analysis.
The sample analysis was performed on LCMS/MS-003 (API4000, triple quadruple) under the following conditions: positive ion, ESI, MRM detection using dexamethasone as internal standard. HPLC conditions: mobile phase A: H2O (0.025% formic acid (FA) with 1 mM NH4OAc); mobile phase B: MeOH (0.025% FA with 1 mM NH4OAc) on Waters X-Bridge C18 (2.1×50 mm, 2.5 μm) column at 60° C.

[4] = fraction unbound to brain proteins, read-out: Fu (b) %
[5] = fraction unbound to plasma proteins, read-out: Fu (p) %

T1 sequence (P61073 whole entry): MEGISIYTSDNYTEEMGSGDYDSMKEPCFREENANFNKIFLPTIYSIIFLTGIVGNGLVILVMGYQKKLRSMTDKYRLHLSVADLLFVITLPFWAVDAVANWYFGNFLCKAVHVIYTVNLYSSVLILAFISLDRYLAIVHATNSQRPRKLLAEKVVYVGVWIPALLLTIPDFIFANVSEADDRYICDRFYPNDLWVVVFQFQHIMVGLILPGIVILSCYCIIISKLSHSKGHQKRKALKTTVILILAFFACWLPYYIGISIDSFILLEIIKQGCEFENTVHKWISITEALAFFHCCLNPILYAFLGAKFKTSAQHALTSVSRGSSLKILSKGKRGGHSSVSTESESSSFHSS
T2 sequence (P61073 whole entry): as above

## Cc1cccnc1[C@@H]1CCC[C@H](c2nc3ccccc3n2CC2CCN(C)CC2)N1C [I-15, 2-((2R,6S)-1-methyl-6-(3-methylpyridin-2-yl)piperidin-2-yl)-1-((1-methylpiperidin-4-yl)methyl)-1H-benzo[d]imidazole]
[1]
  IC50: 0.01 to 100 nM
In vitro
  Papp A→B at 90 min, 10 μM: 0.1 to 10 ×10⁻⁶ cm/s
  Papp B→A at 90 min, 10 μM: 10 to 30 ×10⁻⁶ cm/s
  efflux ratio at 90 min, 10 μM: 0.1 to 10
[2]
  IC50: 0.01 to 100 nM
[3]
  Kp: 0.34
  clearance: 282 mL/min/kg
  half-life: 17.8 min
  Kp uu: 0.02
[3]; brain, read-out: AUClast (b)
  AUC(0-t): 55.3 ng·h/mL
[3]; plasma, read-out: AUClast (P)
  AUC(0-t): 161 ng·h/mL
[3]; [4]
  fraction unbound: 0.004
[3]; [5]
  fraction unbound: 0.076

## CN1CCN(c2cccc3nc([C@H]4CCC[C@@H](c5ncccc5Cl)N4C)[nH]c23)CC1 [I-9, 2-((2R,6S)-6-(3-chloropyridin-2-yl)-1-methylpiperidin-2-yl)-7-(4-methylpiperazin-1-yl)-1H-benzo[d]imidazole]
[1]
  IC50: 100 to 1000 nM
In vitro
  Papp A→B at 90 min, 10 μM: 10 to 30 ×10⁻⁶ cm/s
  Papp B→A at 90 min, 10 μM: 10 to 30 ×10⁻⁶ cm/s
  efflux ratio at 90 min, 10 μM: 0.1 to 10
[2]
  IC50: 0.01 to 100 nM
[3]
  Kp: 2.51
  clearance: 77.2 mL/min/kg
  half-life: 16 min
  Kp uu: 0.73
[3]; brain, read-out: AUClast (b)
  AUC(0-t): 1510 ng·h/mL
[3]; plasma, read-out: AUClast (P)
  AUC(0-t): 601 ng·h/mL
[3]; [4]
  fraction unbound: 0.016
[3]; [5]
  fraction unbound: 0.055
